Measured values published in patent publication US11541060B2, “Pharmaceutical compositions for treating pain” (FOREVER CHEER INTERNATIONAL LIMITED, priority 2017, dated 2023).
“Also recorded” adds a separate entry of the source.

Columns and labels:
pre-LTP in ACC = pre-LTP in ACC cortical slices; format: cell-based, adult mice; conditions: 25 μM (SQ22356 'same dose'; NB011 concentration not given), FIG. 1B/FIG. 2
[1] = system: morphine tolerance in mice; assay: Morphine tolerance after repeated morphine injections (hotplate, tail-flick); conditions: mouse, in vivo
[2] = system: morphine-induced place preference in mice; assay: Conditioned place preference (CPP) to morphine; format: in vivo
[3] = system: anxiety caused by nerve injury in mice; assay: Anxiety behavior test (EPM) after nerve injury; format: in vivo; conditions: FIG. 6
[4] = system: behavioral itching (scratching) response in mice; assay: Itching response to intradermal compound 48/80; format: in vivo; conditions: compound 48/80 100 μg/50 μl intradermal, FIG. 7
post-LTP in ACC [5] = conditions: recent report (Chen et al., 2014); cited from earlier work
[6] = target: adenylyl cyclase subtype 8 (AC8) (Homo sapiens, UniProt P40145); assay: cAMP assay in AC8 expressing cell line (biochemical screening for AC1 & 8 inhibitors); format: cell-based; conditions: for inhibition of AC8 activity (in words): 100 μM; for inhibition at 100 µM: read-out: Percent Inhibition AC8
adenylyl cyclase subtype 8 (AC8), sequence (P40145 whole entry, species assumed): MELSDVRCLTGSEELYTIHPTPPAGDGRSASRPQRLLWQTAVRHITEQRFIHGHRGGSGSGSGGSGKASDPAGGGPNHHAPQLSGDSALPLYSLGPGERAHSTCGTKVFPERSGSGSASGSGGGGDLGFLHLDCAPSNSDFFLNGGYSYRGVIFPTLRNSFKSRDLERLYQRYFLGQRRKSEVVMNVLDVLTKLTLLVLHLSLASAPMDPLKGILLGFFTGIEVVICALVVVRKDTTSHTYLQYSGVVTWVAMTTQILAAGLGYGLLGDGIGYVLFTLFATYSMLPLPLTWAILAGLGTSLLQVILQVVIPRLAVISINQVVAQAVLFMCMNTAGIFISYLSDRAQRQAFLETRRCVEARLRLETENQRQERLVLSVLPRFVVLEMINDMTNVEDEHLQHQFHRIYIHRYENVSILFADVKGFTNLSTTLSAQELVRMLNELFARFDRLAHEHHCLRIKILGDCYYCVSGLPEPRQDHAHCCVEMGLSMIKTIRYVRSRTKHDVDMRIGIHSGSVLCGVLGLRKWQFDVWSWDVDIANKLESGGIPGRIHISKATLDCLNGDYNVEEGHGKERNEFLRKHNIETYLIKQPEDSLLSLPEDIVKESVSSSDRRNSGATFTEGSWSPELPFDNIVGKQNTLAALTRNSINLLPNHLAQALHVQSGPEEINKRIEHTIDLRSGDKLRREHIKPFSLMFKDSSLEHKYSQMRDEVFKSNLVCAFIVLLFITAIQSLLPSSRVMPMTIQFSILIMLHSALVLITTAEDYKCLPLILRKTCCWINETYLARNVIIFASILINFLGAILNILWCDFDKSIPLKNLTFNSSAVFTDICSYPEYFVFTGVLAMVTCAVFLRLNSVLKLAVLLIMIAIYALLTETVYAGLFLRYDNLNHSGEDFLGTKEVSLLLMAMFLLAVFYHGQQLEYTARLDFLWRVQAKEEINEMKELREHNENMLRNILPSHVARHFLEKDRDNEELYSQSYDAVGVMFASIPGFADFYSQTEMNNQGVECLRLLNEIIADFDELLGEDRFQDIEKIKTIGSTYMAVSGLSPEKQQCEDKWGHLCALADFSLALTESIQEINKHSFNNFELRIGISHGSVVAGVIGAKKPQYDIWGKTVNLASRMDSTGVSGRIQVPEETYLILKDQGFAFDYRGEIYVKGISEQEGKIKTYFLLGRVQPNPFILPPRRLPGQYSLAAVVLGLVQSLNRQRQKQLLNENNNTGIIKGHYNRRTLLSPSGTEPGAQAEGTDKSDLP

[7] = target: adenylyl cyclase subtype 1 (AC1) (Homo sapiens, UniProt Q08828); assay: cAMP assay in AC1 expressing cell line (biochemical screening for AC1 & 8 inhibitors); format: cell-based; conditions: for inhibition of AC1 activity (in words): 100 μM; for inhibition at 100 µM: read-out: Percent Inhibition AC1
adenylyl cyclase subtype 1 (AC1), sequence (Q08828 whole entry): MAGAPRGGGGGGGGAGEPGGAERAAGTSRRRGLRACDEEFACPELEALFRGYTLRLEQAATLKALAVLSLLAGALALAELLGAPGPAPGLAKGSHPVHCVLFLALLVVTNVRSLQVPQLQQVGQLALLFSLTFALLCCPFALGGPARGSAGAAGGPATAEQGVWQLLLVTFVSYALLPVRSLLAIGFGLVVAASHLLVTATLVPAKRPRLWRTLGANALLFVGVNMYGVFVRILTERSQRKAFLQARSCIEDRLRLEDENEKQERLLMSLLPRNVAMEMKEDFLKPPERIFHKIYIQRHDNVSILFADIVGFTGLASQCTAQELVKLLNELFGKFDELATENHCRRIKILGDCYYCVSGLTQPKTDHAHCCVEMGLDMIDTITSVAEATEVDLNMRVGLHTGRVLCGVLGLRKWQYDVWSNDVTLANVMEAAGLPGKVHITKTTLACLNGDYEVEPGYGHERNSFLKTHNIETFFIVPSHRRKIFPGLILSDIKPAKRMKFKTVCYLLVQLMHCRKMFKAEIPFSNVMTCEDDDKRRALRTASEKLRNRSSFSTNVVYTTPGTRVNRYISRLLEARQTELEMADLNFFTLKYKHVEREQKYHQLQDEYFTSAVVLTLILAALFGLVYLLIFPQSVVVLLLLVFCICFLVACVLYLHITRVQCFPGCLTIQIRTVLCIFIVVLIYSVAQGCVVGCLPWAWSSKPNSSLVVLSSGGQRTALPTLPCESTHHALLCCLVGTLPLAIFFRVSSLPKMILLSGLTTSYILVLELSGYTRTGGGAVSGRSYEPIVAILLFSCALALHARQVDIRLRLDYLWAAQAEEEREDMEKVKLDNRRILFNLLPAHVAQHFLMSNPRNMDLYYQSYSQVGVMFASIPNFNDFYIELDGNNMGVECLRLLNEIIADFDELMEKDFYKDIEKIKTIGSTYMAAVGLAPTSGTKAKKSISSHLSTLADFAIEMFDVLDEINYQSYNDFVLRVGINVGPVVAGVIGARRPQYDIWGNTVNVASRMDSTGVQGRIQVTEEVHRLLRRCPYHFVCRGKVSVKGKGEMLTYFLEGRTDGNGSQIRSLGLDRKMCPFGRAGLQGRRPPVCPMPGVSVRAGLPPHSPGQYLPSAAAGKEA

post-LTP in ACC [8] = assay: post-LTP (ACC LTP) in ACC cortical slices; format: cell-based; conditions: 25 μM, ACC slices of adult mice, FIG. 1A

Compound | induction of pre-LTP (pre-LTP in ACC) | morphine tolerance / morphine analgesic effect [1] | morphine-induced place preference ([2]; 100 mg/kg, morphine 10 mg/kg, after 9 days, FIG. 5) | anxiety caused by nerve injury (EPM test) ([3]; 100 mg/kg i.p.) | total scratching (itching) responses ([4]; 100 mg/kg) | total scratching (itching) responses ([4]; 100 mg/kg, listed as GABApention) | effect on ACC LTP (post-LTP in ACC [5]) | morphine-induced place preference ([2]; mouse, in vivo) | inhibition of AC8 activity (in words) [6] | inhibition at 100 µM [6] [%] | inhibition of AC1 activity (in words) [7] | inhibition at 100 µM [7] [%] | induction of post-LTP (ACC LTP) (post-LTP in ACC [8]) | morphine tolerance / morphine analgesic effect ([1]; 1 mg/kg) | anxiety caused by nerve injury (EPM test) ([3]; 5 mg/kg, 7 days after injury) | anxiety caused by nerve injury (EPM test) ([3]; low dose 1 mg/kg, 1 mg/kg) | total scratching (itching) responses ([4]; pretreatment (dose not given)) | morphine-induced place preference ([2]; dose reduced to 1 mg/kg (not shown in figure)) | morphine-induced place preference ([2]; 5 mg/kg, morphine 10 mg/kg, after 9 days, FIG. 5) | total scratching (itching) responses ([4]; 5 mg/kg)
NCC1(CC(=O)O)CCCCC1 [GABApentin, reference compound] | not blocked | did not produce a significant effect; also recorded: did not produce any significant effect | did not produce any significant effect | Neither GABApentin (100 mg/kg, i.p.) nor SQ22356 (5 mg/kg) significantly reduced; also recorded: no significant effect | neither GABApentin nor SQ22356 produce any significant effect | did not cause a significant reduction | does not affect |  |  |  |  |  |  |  |  |  |  |  |  | 
Nc1ncnc2c1ncn2CCNCCCCCO [NB001, 5-((2-(6-amino-9H-purin-9-yl)ethyl)amino)pentane-1-ol] |  |  |  |  |  |  |  | significantly less time; also recorded: significant reduce; also recorded: expected effect was not produced |  |  |  |  |  |  |  |  |  |  |  | 
Cc1ccc(OCCn2c(S)nc3c(N)ncnc32)cc1 [NB010] | inhibit; also recorded: blocked | significant greater analgesic effects; also recorded: reduced |  |  |  |  |  |  | significant inhibition | 88 ± 2 | significant inhibition | 96 ± 4 | blocked | no significant effect | significant reduction; also recorded: reduced anxiety | did not significantly decrease; also recorded: neither NB010 nor NB011 affected anxiety | significantly reduced |  |  | 
c1nc(N2CCOCC2)c2nc[nH]c2n1 [NB011, 4-(9H-purin-6-yl)morpholine] | inhibit; also recorded: decrease | significant greater analgesic effects; also recorded: reduced |  |  |  |  |  |  | significant inhibition | 86 ± 2 | significant inhibition | 91 ± 3 |  | no significant effect | significant reduction; also recorded: reduced anxiety | neither NB010 nor NB011 affected anxiety | significantly reduced | expected effect was not produced |  | 
Nc1ncnc2c1ncn2C1CCCO1 (centres unmarked) [SQ22356, reference compound] | did not cause a significant decrease | no significant effect; also recorded: did not produce any significant effect |  |  |  |  |  |  |  |  |  |  |  |  | Neither GABApentin (100 mg/kg, i.p.) nor SQ22356 (5 mg/kg) significantly reduced; also recorded: no significant effect |  |  |  | did not produce any inhibition | did not show significantly reduction
